Experimental data from patent US5726316A, “Pharmaceutical compositions for prevention and treatment of central nervous system disorders” (priority 1997, dated 1998).

Key:
[1] = target: nicotinic receptors (L-[3H]nicotine binding, rat brain membrane preparations); parameters: species or system rat (Sprague-Dawley); conditions: calculated from IC50 (Cheng et al.)
Protocol: Rats (Sprague-Dawley) were maintained on a 12 hour light/dark cycle and were allowed free access to water and food supplied by Wayne Lab Blox, Madison, Wis. Animals used in the present studies weighted 200 to 250 g. Brain membrane preparations were obtained from brain tissue of either males or females.
Rats were killed by decapitation following anesthesia with 70% CO2. Brains were removed and placed on an ice-cold platform. […] The resulting homogenate was centrifuged at 18,000×g for 20 min. and the resulting pellet was resuspended in 20 volumes of water. After 60 min. incubation at 4° C., a new pellet was collected by centrifugation at 18,000×g for 20 min. After resuspension in 10 volumes of buffer, a new final pellet was again collected by centrifugation at 18,000×g for 20 min. Prior to each centrifugation step, the suspension was incubated at 37° C. for 5 min. to promote hydrolysis of endogenous acetylcholine. The final pellet was overlayed with buffer and stoerd at -70° C. On the day of the assay, that pellet was thawed, resuspended in buffer and centrifuged at 18,000×g for 20 min. The pellet obtained was resuspended in buffer to a final concentration of approximately 5 mg protein/ml.
The binding of L-[^3 H]nicotine was measured using a 2 hr. incubation at 4° C. […] Nonspecific binding was determined by inclusion of 10 uM nonradioactive nicotine in the incubations.

[2] = system: synaptosomes from the striatal area of rat brain; test: Dopamine release from striatal synaptosomes; assay type: biochemical, rat (Sprague-Dawley); conditions: relative to (S)-(-)-nicotine
Protocol: Dopamine release was measured by preparing synaptosomes from the striatal area of rat brain obtained from Sprague-Dawley rats generally according to the procedures set forth by Nagy et al., J. Neurochem., Vol. 43, pp. 1114-1123 (1984). Striata from 4 rats were homogenized in 2 ml of 0.32M sucrose buffered with 5 mM HEPES (pH 7.5), using a glass-Teflon tissue grinder. The homogenate was diluted to 5 ml with additional homogenization solution and centrifuged at 1,000×g for 10 min. This procedure was repeated on the new pellet and the resulting supernatant was centrifuged at 12,000×g for 20 min. A 3 layer discontinuous Percoll gradient consisting of 16 percent, 10 percent and 7.5 percent Percoll in HEPES-buffered sucrose was made with the final pellet dispersed in the top layer. […] Using this method, 30 to 90 percent of the dopamine was taken up into the synaptosomes, as determined by scintillation counting following filtration through glass fiber filters soaked with 0.5 percent polyethyleneimine. […] After the addition of 0.2 ml of a solution containing various concentrations of ligand, the perfusate was collected into scintillation vials at 1 min. intervals and the dopamine release was quantified by scintillation counting. Peaks of radioactivity released above background were summed and the average basal release during that time was substracted from the total.

[3] = target: T1, muscle-like nicotinic receptors (human clonal line TE671/RD) (Homo sapiens, UniProt P02708+P07510+Q07001); assay type: cell-based; conditions: te671/rd cells
T1 construct: Intact cells on dishes were used for functional studies; endogenous in cells; host or cells: TE671/RD (human embryonal rhabdomyosarcoma)
Protocol: Dose-response curves were plotted and the concentration resulting in half maximal activation of specific ion flux through nicotinic receptors determined for human muscle and rat ganglionic preparations (EC50).
(§1) Intact cells on dishes were used for functional studies.
(§2) Specific ion efflux was determined as the difference in isotope efflux between total and non-specific efflux samples. Dose-response curves were plotted and the concentration resulting in half maximal activation of specific ion flux through nicotinic receptors determined for human muscle and rat ganglionic preparations (EC50).

[4] = target: T2, ganglionic-type neuronal nicotinic receptors (pheochromocytoma clonal line PC12) (Rattus norvegicus, UniProt P04757+P12392); assay type: cell-based; conditions: pc12 cells
T2 construct: Intact cells on dishes were used for functional studies; endogenous in cells; host or cells: PC12 (rat pheochromocytoma)
T2 sequence (P04757 26-499): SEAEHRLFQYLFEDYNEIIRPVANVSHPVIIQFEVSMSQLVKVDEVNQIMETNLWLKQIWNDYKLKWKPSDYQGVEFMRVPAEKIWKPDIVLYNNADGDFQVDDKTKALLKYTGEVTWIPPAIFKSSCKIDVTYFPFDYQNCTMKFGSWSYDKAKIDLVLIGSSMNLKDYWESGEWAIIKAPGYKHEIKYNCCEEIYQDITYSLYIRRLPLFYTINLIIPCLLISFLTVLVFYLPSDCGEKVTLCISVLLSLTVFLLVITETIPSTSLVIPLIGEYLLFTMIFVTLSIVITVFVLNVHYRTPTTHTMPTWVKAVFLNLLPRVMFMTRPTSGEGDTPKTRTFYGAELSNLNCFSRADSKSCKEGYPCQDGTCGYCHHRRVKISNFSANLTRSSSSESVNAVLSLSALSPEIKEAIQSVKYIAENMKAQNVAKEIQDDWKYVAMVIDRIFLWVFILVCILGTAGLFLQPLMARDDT
T2 sequence (P12392 21-495): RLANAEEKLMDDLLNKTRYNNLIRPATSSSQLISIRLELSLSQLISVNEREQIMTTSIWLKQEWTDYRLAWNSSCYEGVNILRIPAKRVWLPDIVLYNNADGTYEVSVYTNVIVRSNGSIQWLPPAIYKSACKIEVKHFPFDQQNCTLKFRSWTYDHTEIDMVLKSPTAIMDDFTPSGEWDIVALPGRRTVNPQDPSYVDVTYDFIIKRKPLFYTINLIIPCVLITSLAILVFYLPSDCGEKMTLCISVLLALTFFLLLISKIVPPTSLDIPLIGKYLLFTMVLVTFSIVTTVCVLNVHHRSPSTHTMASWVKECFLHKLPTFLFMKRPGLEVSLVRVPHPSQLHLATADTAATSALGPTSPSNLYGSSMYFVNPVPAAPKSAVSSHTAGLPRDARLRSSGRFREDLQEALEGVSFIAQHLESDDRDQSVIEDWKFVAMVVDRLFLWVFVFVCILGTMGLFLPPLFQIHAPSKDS
Protocol: as §1, §2

T1 sequence (P02708 21-457): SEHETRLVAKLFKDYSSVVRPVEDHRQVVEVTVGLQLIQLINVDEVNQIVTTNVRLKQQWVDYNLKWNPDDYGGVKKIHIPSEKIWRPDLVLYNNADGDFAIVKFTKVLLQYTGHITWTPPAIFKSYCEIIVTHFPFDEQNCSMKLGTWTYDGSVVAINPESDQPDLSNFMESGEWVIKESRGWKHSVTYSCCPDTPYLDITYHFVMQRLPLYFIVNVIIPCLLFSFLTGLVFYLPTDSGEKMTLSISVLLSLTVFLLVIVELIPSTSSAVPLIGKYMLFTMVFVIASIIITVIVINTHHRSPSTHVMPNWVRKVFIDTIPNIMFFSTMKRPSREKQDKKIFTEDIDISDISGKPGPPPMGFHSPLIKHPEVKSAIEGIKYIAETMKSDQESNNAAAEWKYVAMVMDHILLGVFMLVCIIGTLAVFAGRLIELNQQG
T1 sequence (Q07001 22-517): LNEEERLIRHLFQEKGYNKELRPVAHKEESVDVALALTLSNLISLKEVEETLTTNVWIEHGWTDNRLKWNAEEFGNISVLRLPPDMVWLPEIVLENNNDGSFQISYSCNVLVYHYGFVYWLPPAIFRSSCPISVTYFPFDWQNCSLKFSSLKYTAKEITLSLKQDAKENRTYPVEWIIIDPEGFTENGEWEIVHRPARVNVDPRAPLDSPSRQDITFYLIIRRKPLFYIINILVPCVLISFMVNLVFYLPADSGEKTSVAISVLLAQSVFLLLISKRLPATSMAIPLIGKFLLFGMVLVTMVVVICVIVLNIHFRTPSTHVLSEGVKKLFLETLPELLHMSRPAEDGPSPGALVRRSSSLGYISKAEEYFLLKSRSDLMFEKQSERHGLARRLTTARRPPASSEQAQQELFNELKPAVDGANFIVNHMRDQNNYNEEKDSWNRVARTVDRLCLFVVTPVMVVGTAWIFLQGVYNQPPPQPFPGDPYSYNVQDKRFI
T1 sequence (P07510 23-517): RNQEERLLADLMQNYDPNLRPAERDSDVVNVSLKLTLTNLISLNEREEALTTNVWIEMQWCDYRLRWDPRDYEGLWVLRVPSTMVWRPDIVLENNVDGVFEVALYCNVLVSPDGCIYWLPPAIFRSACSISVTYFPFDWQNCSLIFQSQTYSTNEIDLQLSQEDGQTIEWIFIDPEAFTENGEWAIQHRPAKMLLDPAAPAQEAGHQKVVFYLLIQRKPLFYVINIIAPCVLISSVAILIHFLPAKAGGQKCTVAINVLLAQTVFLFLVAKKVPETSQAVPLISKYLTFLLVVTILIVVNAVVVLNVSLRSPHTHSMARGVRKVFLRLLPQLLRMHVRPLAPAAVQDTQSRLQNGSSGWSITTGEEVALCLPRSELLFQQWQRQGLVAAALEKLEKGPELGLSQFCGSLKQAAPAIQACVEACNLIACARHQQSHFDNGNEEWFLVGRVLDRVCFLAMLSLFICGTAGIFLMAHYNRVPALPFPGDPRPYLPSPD

CNCCCCc1cccnc1 [Sample No. 7, N-methyl-(3-pyridinyl)-buane-1-amine]
Ki [1]: 910 nM
Dopamine Release Emax [2]: 72 % nicotine
Muscle Effect [3]: 0 % nicotine
Ganglion Effect [4]: 31 % nicotine
